Test results from patent US10183941B2, “Pyrimidine or pyridopyridone compound and application thereof” (GUANGZHOU BEBETTER MEDICINE TECHNOLOGY CO., LTD., priority 2015, dated 2019).
Read-outs that look alike come from different tables or passages of the source.

Tests used:
CDK2 = target: T1, CDK2 (Homo sapiens, UniProt P24941); assay: CDK2 activity inhibition experiment (Caliper mobility shift assay); assay type: biochemical; details: enzyme activity inhibition; read-out: CDK2 IC50 class
T1 construct: purchased Carna 04-103
Description: After being incubated at 28° C. for 60 minutes, 25 μl of stop solution was added to stop the reaction. Conversion rate data was read from Caliper EZ Reader II (Caliper Life Sciences). The conversion rate data was converted into inhibition rate data. […] The curve was plotted with compound concentration and inhibition rate as horizontal and vertical coordinates, and the IC50 was calculated by fitting the curve using XLFit excel add-in version 4.3.1 software. Inhibition rate %=(max-conversion rate)/(max-min)×100.

[1] = target: T2, CDK4 (GST-CDK4(1-303end)/GST-CycD3(1-292end)) (Homo sapiens, UniProt P11802); assay: CDK4 activity inhibition experiment (Caliper mobility shift assay); assay type: biochemical; details: enzyme activity inhibition; read-out: CDK4 IC50 class
T2 construct: GST-CDK4(1-303end); purchased Carna 04-105

[2] = target: T3, CDK6 (GST-CDK6(1-326end)) (Homo sapiens, UniProt Q00534); assay: CDK6 activity inhibition experiment (Caliper mobility shift assay); assay type: biochemical; details: enzyme activity inhibition; read-out: CDK6 IC50 class
T3 construct: GST-CDK6(1-326end); purchased Carna 04-107
Description: The activity of CDK6 protein kinase was measured using Caliper mobility shift assay (see J. Biomol Screen 14:31, 2009). […] 10 μl of the 2.5 times diluted CDK6 enzyme solution (GST-CDK6(1-326end); Carna, Cat. No 04-107) was added and then incubated at room temperature for 10 minutes, then 10 μl of the 2.5 times diluted substrate solution Peptide FAM-P8 (GL Biochem, Cat. No. 112396) was added. After being incubated at 28° C. for 40 minutes, 25 μl of stop solution was added to stop the reaction. Conversion rate data was read from Caliper EZ Reader II (Caliper Life Sciences). The conversion rate data was converted into inhibition rate data. […] Conversion rate data was converted into inhibition rate data according to the method described above. Inhibition rate %=(max−conversion rate)/(max−min)×100.

SW620 = assay: Tumor cell proliferation inhibition (CellTiter-Glo), SW620; assay type: cell-based; details: Homo sapiens, SW-620; 72 hours, 10% fetal bovine serum; read-out: SW620 IC50 class
Description: (§1) The content of adenosine triphosphate (ATP) was determined using the CellTiter-Glo Luminescent Cell Viability Assay Kit (Promega, Madison, Wis.) to evaluate cell viability. Tumor cell lines (SW620, ZR-75-1, MDA-MB-231) were purchased from the Cell Resource Center of IBS, Fudan University, Shanghai and the American Type Culture Collection (ATCC). The cell density was determined using Scepter automated cell counter (Millipore # PHCC00000) after the cells were digested with pancreatin in cell culture dishes and resuspended in DPBS medium. The cells were diluted to a solution of 44,000 cells per ml. The cell solution of which density was adjusted was added into the cell assay plate at 90 microliters per well. The well plate was incubated in an incubator with 5% CO2 at 37° C. for 24 hours and then added with test compounds with different concentrations. The cells were incubated with the compounds in the presence of 10% fetal bovine serum for 72 hours. ATP content was assayed using the CellTiter-Glo® Luminescent Cell Viability Assay kit (see instructions of manufacturer) to assess cell growth inhibition. Briefly, 30 μl of CellTiter-Glo® reagent was added to each well, rocked for 10 minutes to induce cell lysis, and […] were detected and recorded with Fluoroskan Ascent FL (Thermo). The maximum signal value was obtained from the cells treated with dimethyl sulfoxide for 72 hours. The minimum signal value was obtained from the separate culture medium (cell number was zero). Inhibition rate %=(maximum signal value−compound signal value)/(maximum signal value−minimum signal value)×100. Data was processed using GraphPad Prism V5.0 (GraphPad Software, San Diego, Calif.) software. IC50 values were calculated by fitting S-shaped dose-response curves.

ZR-75-1 = assay: Tumor cell proliferation inhibition (CellTiter-Glo), ZR-75-1; assay type: cell-based; details: Homo sapiens, 72 hours, 10% fetal bovine serum, read-out: ZR-75-1 IC50 class
Description: as §1

MDA-MB-231 = assay: Tumor cell proliferation inhibition (CellTiter-Glo), MDA-MB-231; assay type: cell-based; details: Homo sapiens, 72 hours, 10% fetal bovine serum, read-out: MDA-MB-231 IC50 class
Description: as §1

[3] = tested on: locally advanced or metastatic breast cancer, ER+ / HER2−; details: cited from earlier work
[4] = tested on: MDA-MB-231 breast cancer cells; assay: Cell cycle inhibition experiment (PI staining, flow cytometry); assay type: cell-based; details: Homo sapiens, MDA-MB-231 cells, 24 h
Source text: The cell cycle and apoptosis assay kit (Beyotime, C1052) used in this experiment is an assay kit for analyzing the cell cycle and apoptosis using the classic method of Propidium staining (PI staining). Propidium (PI) is a double-stranded DNA fluorescent dye. The combination of propidium and double-stranded DNA can produce fluorescence, and fluorescence intensity is proportional to the amount of double-stranded DNA. After DNA in cells is stained with propidium, the DNA content of the cells can be measured by flow cytometry, and then the cell cycle and apoptosis can be analyzed according to the distribution of DNA content.
MDA-MB-231 cells were seeded into a 6-well plate at 3×10^5 per well and cultured for 24 hours.
In tumor cell cycle, the binding of CDK4 and CDK6 to cyclin D promotes G1 phase into S phase. CDK4/6 inhibitor selectively arrests the G1 phase of tumor cells into S phase. The detection results of the cell cycle of MDA-MB-231 breast cancer cells by flow cytometry indicate that the CDK4/6 inhibitor compounds provided by the present disclosure stop the growth of G1 phase cells and reduce S phase cells in a concentration-dependent manner, as shown in the following table.

[5] = tested on: phosphorylation of Rb at Ser780 in MDA-MB-231 breast cancer cells; assay: Western Blot experiment, Rb phosphorylation; assay type: cell-based; details: MDA-MB-231 cells, 16 hours incubation, FIG. 1
Description: MDA-MB-231 cells were grown in monolayer culture. […] The protein concentration was determined by the Branfor method. After being added with a loading buffer (Beyotime, # P0015L), the supernatant was boiled at 100° C. for 8 min, and the protein was separated by 8%-10% SDS-PAGE electrophoresis and then transferred to the PVDF membrane, and the membrane was blocked with 5% skimmed milk powder for 45 min, and then the cells were incubated overnight at 4° C. with primary antibody β-actin (CST, #4970), Rb (D20) Rabbit mAb (CST, #9313), Phospho-Rb(Ser780)(D59B7) Rabbit mAb (CST, #8180), and then the membrane was washed with TBST solution for 3×10 min. The cells were incubated in the dark at room temperature for 2 h with the fluorescent secondary antibody IRDye@680CW Goat (polyclonal) Anti-Rabbit 1gG (H+L), Highly Cross Adsorbed (LI-COR, #926-68071), and then the membrane was washed under the same condition above. Finally, the membrane was detected and imaged on a LI-COR Odyssey Infrared Fluorescence Scanning System, and the results are shown in FIG. 1.
CDK4/6 can make Rb protein lose the arrest on cell cycle by phosphorylating the tumor suppressor protein Rb protein. CDK4/6 inhibitor can prevent the inactivation of tumor suppressor protein Rb and thereby restore the arrest of Rb on cell cycle.

[6] = Pharmacokinetic (PK) experiment in rats; assay type: in vivo; details: male, SD, plasma, po, rat, intragastric 20 mg/kg; for AUC(0-t): 0-24 hour
Description: Male SD rats weighing 300-350 g were fasted overnight prior to the experiment. The compounds to be tested were dissolved in 30% sulfobutyl ether-β-cyclodextrin (SBE-β-CD) and the rats were intragastric administration at 20 mg/kg. The blood was taken from the tails of the rats at 15 min, 30 min, and 1, 2, 3, 4, 6, 8 and 24 hours after administration, with about 0.3 ml of blood at each time point, and then the blood was placed in a centrifuge tube containing K2-EDTA, and centrifuged (2,000 g, 10 min, 4° C.) to take the plasma which was then stored in an ultra-low temperature freezer at −80° C. 50 μL, of plasma sample was mixed with 5 μL of internal standard (IS) and extracted with ethyl acetate. The residue was redissolved in acetonitrile after vacuum drying. The sample was filtered and injected into LC-MS/MS for analysis to determine the concentration of the compounds to be tested.
In the table: Tmax refers to the peak time, Cmax refers to the maximum plasma drug concentration, T1/2 is the half-life, AUClast refers to the area under the 0-24 hour time-concentration curve, AUCinf refers to the area under the 0-Inf time-concentration curve.

[7] = tested on: MDA-MB-435 breast cancer cells; assay: Pharmacodynamic experiment, MDA-MB-435 xenograft; assay type: in vivo, mouse
Description: MDA-MB-435 breast cancer cells were obtained from Shanghai Cell Bank of Chinese Academy of Sciences. Cryopreserved cells were thawed in a 37° C. water bath and then placed in RPMI 1640 medium supplemented with 10% fetal bovine serum (FBS), 1% insulin (Bioman Biotech, Shanghai) and incubated in 5% CO2 of Tissue Culture Incubator. […] The sign of successful transplantation was the formation of a round bulging lump under the skin. Tumor size can be measured approximately two weeks after implantation. The tumor size was measured by a caliper.

[8] = cited from earlier work

T2 sequence (P11802 whole entry): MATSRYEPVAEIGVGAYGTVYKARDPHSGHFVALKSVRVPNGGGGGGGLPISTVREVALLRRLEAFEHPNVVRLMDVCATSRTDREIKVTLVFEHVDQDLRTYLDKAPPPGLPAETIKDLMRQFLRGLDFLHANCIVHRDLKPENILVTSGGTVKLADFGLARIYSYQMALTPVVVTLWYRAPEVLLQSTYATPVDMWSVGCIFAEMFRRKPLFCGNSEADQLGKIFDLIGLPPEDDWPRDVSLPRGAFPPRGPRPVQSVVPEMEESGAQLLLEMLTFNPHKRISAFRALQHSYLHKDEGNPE
T2 sequence (P30281 whole entry partner): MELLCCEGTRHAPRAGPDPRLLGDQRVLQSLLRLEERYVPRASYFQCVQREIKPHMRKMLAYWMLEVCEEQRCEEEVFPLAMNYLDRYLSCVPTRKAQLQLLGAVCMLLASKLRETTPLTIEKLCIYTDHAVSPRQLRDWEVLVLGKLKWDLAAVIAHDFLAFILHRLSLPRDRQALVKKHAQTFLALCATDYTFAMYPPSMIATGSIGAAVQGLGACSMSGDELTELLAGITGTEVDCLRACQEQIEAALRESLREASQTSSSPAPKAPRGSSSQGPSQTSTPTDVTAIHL
T3 sequence (Q00534 whole entry): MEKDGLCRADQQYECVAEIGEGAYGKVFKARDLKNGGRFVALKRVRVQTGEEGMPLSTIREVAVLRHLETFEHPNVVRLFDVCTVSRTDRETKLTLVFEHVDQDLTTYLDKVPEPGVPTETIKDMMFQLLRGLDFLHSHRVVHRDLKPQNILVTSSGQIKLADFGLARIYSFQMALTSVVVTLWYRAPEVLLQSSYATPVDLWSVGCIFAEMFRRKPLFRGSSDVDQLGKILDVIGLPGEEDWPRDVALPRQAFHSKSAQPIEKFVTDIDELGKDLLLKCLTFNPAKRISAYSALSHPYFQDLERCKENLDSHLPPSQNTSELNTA
T3 sequence (P30281 whole entry partner): as the sequence (P30281 whole entry partner) above

Row | Structure (SMILES) | IC50 (CDK2) | IC50 [1] | IC50 [2] | IC50 (SW620) | IC50 (ZR-75-1) | IC50 (MDA-MB-231) | IC50 ([4]; read-out: IC50 (nM) G1 arrest) | IC50 ([4]; read-out: IC50 (nM) S decrease) | also measured
1 | CC(=O)c1c(C)c2cnc(Nc3ccc(C4CCN(CCS(C)(=O)=O)CC4)cn3)cc2n(C2CCCC2)c1=O [Compound 13, 3-acetyl-1-cyclopentyl-4-methyl-7-((5-(1-(2-(methylsulfonyl)ethyl)piperidin-4-yl)pyridin-2-yl)amino)-1,6-naphthyridin-2(1H)-one] | > 500 nM | < 10 nM | 10 to 50 nM | 1000 to 5000 nM | 500 to 1000 nM | 500 to 1000 nM |  |  | 
2 | N#Cc1ccc(C(c2ccc(C#N)cc2)n2cncn2)cc1 [letrozole] |  |  |  |  |  |  |  |  | progression-free survival (PFS) ([3]; phase II, postmenopausal women, ER+ HER2− breast cancer, p=0.0004): 10.2 months
3 | CC(=O)c1c(C)c2cnc(Nc3ccc(C4CCN(CCCS(C)(=O)=O)CC4)cn3)nc2n(C2CCCC2)c1=O [Compound 2, 6-acetyl-8-cyclopentyl-5-methyl-2-((5-(1-(3-(methylsulfonyl)propyl)piperidin-4-yl)pyridin-2-yl)amino)pyrido[2,3-d]pyrimidin-7(8H)-one] | > 500 nM | < 10 nM | 10 to 50 nM | 100 to 500 nM | ≤ 100 nM | 100 to 500 nM | 39.8 nM | 40.9 nM | phosphorylation of Rb at Ser780 site [5]: effectively reduce; Cmax [6]: 860 ng/mL; Tmax [6]: 2.7 h; half-life [6]: 5 h; AUC(0-t) [6]: 11200 ng·h/mL; AUC(0-inf) [6]: 11700 ng·h/mL
4 | CCN1CCN(Cc2ccc(Nc3ncc(F)c(-c4cc(F)c5nc(C)n(C(C)C)c5c4)n3)nc2)CC1 [LY2835219, reference compound] |  |  |  | 100 to 500 nM | ≤ 100 nM | 100 to 500 nM | 35.2 ± 8.9 nM | 42.9 ± 13.5 nM | 
5 | CC(=O)c1c(C)c2cnc(Nc3ccc(C4CCCN(CCS(C)(=O)=O)C4)cn3)nc2n(C2CCCC2)c1=O (stereo not shown) [Compound 5, 6-acetyl-8-cyclopentyl-5-methyl-2-((5-(1-(2-(methylsulfonyl)ethyl)piperidin-3-yl)pyridin-2-yl)amino)pyrido[2,3-d]pyrimidin-7(8H)-one] | > 500 nM | 10 to 50 nM | 10 to 50 nM | 100 to 500 nM | 100 to 500 nM | 500 to 1000 nM |  |  | 
6 | CC(=O)c1c(C)c2cnc(Nc3ccc(C4CCN(CCS(=O)(=O)c5ccc(Cl)cc5)CC4)cn3)nc2n(C2CCCC2)c1=O [Compound 4, 6-acetyl-2-((5-(1-(2-((4-chlorophenyl)sulfonyl)ethyl)piperidin-4-yl)pyridin-2-yl)amino)-8-cyclopentyl-5-methylpyrido[2,3-d]pyrimidin-7(8H)-one] |  |  | > 500 nM |  |  |  |  |  | 

The next lines start with results.

Row | IC50 (CDK2) | IC50 [1] | IC50 [2] | IC50 (SW620) | IC50 (ZR-75-1) | IC50 (MDA-MB-231) | IC50 ([4]; read-out: IC50 (nM) G1 arrest) | IC50 ([4]; read-out: IC50 (nM) S decrease) | Structure (SMILES) | also measured
7 |  |  |  | 500 to 1000 nM | ≤ 100 nM | 1000 to 5000 nM |  |  | CN(C)C(=O)c1cc2cnc(Nc3ccc(N4CCNCC4)cn3)nc2n1C1CCCC1 [LEE011, reference compound] | 
8 |  |  |  | 100 to 500 nM | 100 to 500 nM | 100 to 500 nM | 42.4 ± 16.1 nM | 45.1 ± 10.9 nM | CC(=O)c1c(C)c2cnc(Nc3ccc(N4CCNCC4)cn3)nc2n(C2CCCC2)c1=O [PD-0332991, Palbociclib, reference compound] | Cmax [6]: 213 ng/mL; Tmax [6]: 1.2 h; half-life [6]: 10 h; AUC(0-t) [6]: 1250 ng·h/mL; AUC(0-inf) [6]: 1400 ng·h/mL; average body weight of the mice ([7]; after 6 days of oral 150 mg/kg once daily): significantly reduced; T/C value ([7]; after 14 days of oral administration, PD-0332991 150 then 100 mg/kg once daily, Compound 1 75 mg/kg twice daily): 41%; T/C value ([7]; day 6 after discontinuation (D20)): 35%; elimination half-life (Average) ([8]; Phase I clinical): 25.9 h; AUC ([8]; Phase I, single oral dose of 25-150 mg): 58 to 641 ng·h/mL; side effects ([3]; clinical, Pfizer Press Release): leukocyte reduction and fatigue
